Experimental data as given in PMC5572576 (The Lancet. Oncology, 2017).
Where “and” joins values, the source holds several entries; their conditions need not be identical. Equal values may be shown once.

Columns and labels:
AXL = conditions: panel of 78 kinases; cited from earlier work
FLT3 = conditions: cell-based assays; cited from earlier work
[1] = test system: FLT3-ITD receptors in Molm14 cells; experiment: Ex vivo FLT3 plasma inhibitory activity; format: cell-based; conditions: by Day 8, majority of patients receiving ≥80 mg
[2] = Plasma pharmacokinetics after oral once-daily dosing; format: in vivo, human; conditions: oral daily dosing 20–450 mg
[3] = biological target: anaplastic lymphoma kinase (ALK); conditions: panel of 78 kinases; cited from earlier work
patients with R/R AML = experiment: Phase 1/2 study, antileukemic response; format: in vivo, human; conditions: for Median overall survival / Median response duration: (95% CI)
[4] = FLT3mut+ receiving ≥80mg/d (n=169)

CCc1nc(C(N)=O)c(Nc2ccc(N3CCC(N4CCN(C)CC4)CC3)c(OC)c2)nc1NC1CCOCC1 [gilteritinib]
kinase inhibition (AXL): strong inhibitor | IC50 (FLT3): […] | FLT3 phosphorylation inhibition [1]: ≥ 90% | Steady state plasma levels reached [2]: 15 treatment Day | kinase inhibition [3]: strong inhibitor | CRc (patients with R/R AML; FAS (n=249)): 75 (30% [25, 36]) n (% [95% CI]) | ORR (patients with R/R AML; FAS (n=249)): 100 (40% [34, 47]) n (% [95% CI]) | Median overall survival (patients with R/R AML; FAS (n=249)): 25 (20, 30) weeks | Median response duration (patients with R/R AML; FAS (n=249)): […] | CRc (patients with R/R AML; FLT3WT (n=58)): 5 (9% [3, 19]) n (% [95% CI]) | Median overall survival (patients with R/R AML; FLT3WT (n=58)): 17 (11, 21) weeks | Median response duration (patients with R/R AML; FLT3WT (n=58)): […] | CR (patients with R/R AML; FLT3mut+ all patients (n=191)): 18 (9% [6, 15]) n (% [95% CI]) | CRc (patients with R/R AML; FLT3mut+ all patients (n=191)): 70 (37% [30, 44]) n (% [95% CI]) | CRi (patients with R/R AML; FLT3mut+ all patients (n=191)): 42 (22% [16, 29]) n (% [95% CI]) | CRp (patients with R/R AML; FLT3mut+ all patients (n=191)): 10 (5% [3, 9]) n (% [95% CI]) | ORR (patients with R/R AML; FLT3mut+ all patients (n=191)): 93 (49% [41, 56]) n (% [95% CI]) | PR (patients with R/R AML; FLT3mut+ all patients (n=191)): 23 (12% [8, 18]) n (% [95% CI]) | Median overall survival (patients with R/R AML; FLT3mut+ all patients (n=191)): 30 (23, 33) weeks | Median response duration (patients with R/R AML; FLT3mut+ all patients (n=191)): […] | Transplant rate (patients with R/R AML; FLT3mut+ receiving ≥80 mg/d): 19% | CR (patients with R/R AML; [4]): 18 (11% [6, 16]) n (% [95% CI]) | CRi (patients with R/R AML; [4]): 41 (24% [18, 31]) n (% [95% CI]) | CRp (patients with R/R AML; [4]): 10 (6% [3, 11]) n (% [95% CI]) | ORR (patients with R/R AML; [4]): 88 (52% [44, 60]) n (% [95% CI]) | PR (patients with R/R AML; [4]): 19 (11% [7, 17]) n (% [95% CI]) | Median overall survival (patients with R/R AML; [4]): 31 weeks and 31 (24, 59) weeks | Median response duration (patients with R/R AML; [4]): […] | Median OS (patients with R/R AML; FLT3mut+ responders who underwent HSCT (n=32)): 47 weeks | Transplant rate (patients with R/R AML; FLT3mut+ who achieved PR or better): 34% | Transplant rate (patients with R/R AML; FLT3mut+ with CRc and no prior transplant (n=47)): 47% | Transplant rate (patients with R/R AML; entire FLT3mut+ population): 19%
